Results: PubChem BioAssay AID2060627 (Molecular Pharmacology Branch, DTP, NCI, 2025)

Test system: 156681-154-R-J1-PDC complex spheroid viability
Assay: Anticancer human tumor 156681-154-R-J1-PDC patient-derived melanoma cell line growth inhibition [CLK]
Details: for IC50: curve of first compound; for viability, T/C: stronger effect = lower value
From the text: A high-throughput screen of multi-cell type tumor spheroids was designed to identify active combinations of […] and targeted small molecules. Complex spheroids include a stromal component modeled by human endothelial cells (HUVEC) and fibroblasts modeled by human mesenchymal stem cells (MSCs). The concentration ranges selected for each drug and investigational agent were based upon clinically achievable concentrations if the clinical Cmax of the agent was known.
Compounds. The drugs and investigational agents: cirtuvivint (SM08502; NSC835563), CC-671 (NSC850746), vemurafenib (NSC761431), tapotoclax (NSC804041), sotorasib (NSC818433), adagrasib (NSC831453), MRTX-1133 (NSC836407), BAY2416964 (NSC825713), copanlisib (NSC816437), inavolisib (NSC800729), abemaciclib (NSC768073), osimertinib (NSC779217), entinostat (NSC756642), eltanexor (KPT-8602, NSC794443), venetoclax (NSC766270), ceralasertib (NSC777638), bortezomib (NSC756655), olaparib (NSC753686), talazoparib (NSC767125), alisertib (NSC759677), peposertib (NSC802822), gemcitabine (NSC613327), 5-fluorouracil (NSC19893), SN-38 (NSC673596), oxaliplatin (NSC266046), paclitaxel (NSC125973), and doxorubicin (NSC123127), were obtained from the National Cancer Institute (NCI) Developmental Therapeutics Program Chemical Repository. The FDA-approved anticancer drug set is available from the Developmental Therapeutics Program at https://dtp.cancer.gov/organization/dscb/obtaining/available plates.htm. […] The stock solutions were prepared in dimethyl sulfoxide (DMSO, Sigma-Aldrich, St. Louis, MO, cat. D2650), except for the platinum complexes which were prepared in saline (Quality Biological, Gaithersburg, MD, cat. 114-055-101), at 800-fold the tested concentration and stored at -70 degrees C prior to their use. All drugs and investigational agents were tested over a range starting from a high concentration at or near the clinical Cmax and decreasing in half-log increments. If the clinical Cmax for an agent had not been determined, the highest concentration tested was 10 microM.
Cell Culture. All cells were maintained in an incubator at 37 degrees C and 5% CO2 with 95% humidity. The PDC lines were cultured according to standard operating procedures established by the NCI PDMR. Briefly, all PDCs were thawed and cultured in Matrigel-coated flasks prepared with a working solution of 1X Ham's F-12 nutrient mix, without supplementation (Invitrogen, Waltham, MA, cat. 11765054), 100 U/mL penicillin-streptomycin (Invitrogen, cat. 15140122), and 2.5% Matrigel (Corning Inc., Corning, NY, cat. 354248) for the first three passages. The 947758-054-R-J2-PDC line was cultured in 6B/Colon 1A media, which includes advanced DMEM/F-12 (Thermo Fisher Scientific, cat. 12634028), 10 mM HEPES (Thermo Fisher Scientific, cat. 15630080), 1X GlutaMAX supplement (Thermo Fisher Scientific, cat. 35050061), 0.1 mg/mL primocin (InvivoGen, cat. ant-pm-2), 10% defined fetal bovine serum, heat inactivated (HyClone Laboratories Inc., cat. SH30070.03HI), 1.25 mM N-Acetyl-L-cysteine (Sigma-Aldrich, cat. A9165), 10 mM nicotinamide (Sigma-Aldrich, cat. N0636), 1X B-27 supplement (Thermo Fisher Scientific, cat. 17504044), 1X N-2 supplement (Thermo Fisher Scientific, cat. 17502048), and 10 microM Y-27632 dihydrochloride (Tocris Bioscience, cat. 1254). The 876862-298-R-J1-PDC was cultured in 6E media, which includes all 6B/Colon 1A media components plus 50% L-WRN conditioned media (ATCC, cat. CRL-3276), 50 ng/mL recombinant human EGF recombinant protein (hEGF; Thermo Fisher Scientific, cat. PHG0311), 10 ng/mL recombinant human fibroblast growth factor 10 (hGFG-10; PeproTech, cat. 100-26), 1 ng/mL recombinant human fibroblast growth factor 2 (hFGF-2; PeproTech, cat. 100-18B), and 1 µM prostaglandin E2 (PGE2; Tocris, cat. 2296). The 227483-062-R1-J1-PDC line was cultured in Panc media, containing all 6E components except hFGF-2, with the addition of 500 nM SB-431542 (Selleckchem, cat. S1067) and 10 nM gastrin (Tocris, cat. 3006). […]

[1] = second compound 0.0316 µM, first compound 0.0316 µM
[2] = second compound 0.0316 µM, first compound 0.1 µM
[3] = second compound 0.0316 µM, first compound 0.316 µM
[4] = second compound 0.0316 µM, first compound 1 µM
[5] = second compound 0.0316 µM, first compound 3.16 µM
[6] = second compound 0.0316 µM, first compound 10 µM
[7] = second compound 0.1 µM, first compound 0.0316 µM
[8] = second compound 0.1 µM, first compound 0.1 µM
[9] = second compound 0.1 µM, first compound 0.316 µM
[10] = second compound 0.1 µM, first compound 1 µM
[11] = second compound 0.1 µM, first compound 3.16 µM
[12] = second compound 0.1 µM, first compound 10 µM
[13] = second compound 0.316 µM, first compound 0.0316 µM
[14] = second compound 0.316 µM, first compound 0.1 µM
[15] = second compound 0.316 µM, first compound 0.316 µM
[16] = second compound 0.316 µM, first compound 1 µM
[17] = second compound 0.316 µM, first compound 3.16 µM
[18] = second compound 0.316 µM, first compound 10 µM
[19] = second compound 1 µM, first compound 0.0316 µM
[20] = second compound 1 µM, first compound 0.1 µM
[21] = second compound 1 µM, first compound 0.316 µM
[22] = second compound 1 µM, first compound 1 µM
[23] = second compound 1 µM, first compound 3.16 µM
[24] = second compound 1 µM, first compound 10 µM
[25] = second compound 3.16 µM, first compound 0.0316 µM
[26] = second compound 3.16 µM, first compound 0.1 µM
[27] = second compound 3.16 µM, first compound 0.316 µM
[28] = second compound 3.16 µM, first compound 1 µM
[29] = second compound 3.16 µM, first compound 3.16 µM
[30] = second compound 3.16 µM, first compound 10 µM
[31] = second compound 10 µM, first compound 0.0316 µM
[32] = second compound 10 µM, first compound 0.1 µM
[33] = second compound 10 µM, first compound 0.316 µM
[34] = second compound 10 µM, first compound 1 µM
[35] = second compound 10 µM, first compound 3.16 µM
[36] = second compound 10 µM, first compound 10 µM
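Also: spheroids exposed to the agents for seven days.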
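For viability, T/C in this document: 100% = DMSO vehicle control viability.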

## CC1(C)CCC(CN2CCN(c3ccc(C(=O)NS(=O)(=O)c4ccc(NCC5CCOCC5)c([N+](=O)[O-])c4)c(Oc4cnc5[nH]ccc5c4)c3)CC2)=C(c2ccc(Cl)cc2)C1 + CNC(=O)c1ccc(Nc2nc(OC3CCCC3)c3c(-c4ccc5nc(C)oc5c4)c[nH]c3n2)c(OC)c1
Second compound 0.0316 µM
  IC50: 5040 nM
Second compound 0.1 µM
  IC50: 4190 nM
Second compound 0.316 µM
  IC50: 3250 nM
Second compound 1 µM
  IC50: 1860 nM
Second compound 3.16 µM
  IC50: < 31.6 nM
Second compound 10 µM
  IC50: < 31.6 nM
[1]
  viability, T/C: 92.9%
[2]
  viability, T/C: 101%
[3]
  viability, T/C: 103%
[4]
  viability, T/C: 96.8%
[5]
  viability, T/C: 83%
[6]
  viability, T/C: 1.52%
[7]
  viability, T/C: 66.6%
[8]
  viability, T/C: 80%
[9]
  viability, T/C: 82%
[10]
  viability, T/C: 70.4%
[11]
  viability, T/C: 65.8%
[12]
  viability, T/C: 0.92%
[13]
  viability, T/C: 67.1%
[14]
  viability, T/C: 72.9%
[15]
  viability, T/C: 65.2%
[16]
  viability, T/C: 74.1%
[17]
  viability, T/C: 51.2%
[18]
  viability, T/C: 0.88%
[19]
  viability, T/C: 59.7%
[20]
  viability, T/C: 62.7%
[21]
  viability, T/C: 46.6%
[22]
  viability, T/C: 57%
[23]
  viability, T/C: 44.8%
[24]
  viability, T/C: 2.29%
[25]
  viability, T/C: 42.6%
[26]
  viability, T/C: 37.8%
[27]
  viability, T/C: 36.2%
[28]
  viability, T/C: 50.4%
[29]
  viability, T/C: 32.1%
[30]
  viability, T/C: 1.28%
[31]
  viability, T/C: 46.6%
[32]
  viability, T/C: 34.7%
[33]
  viability, T/C: 39.9%
[34]
  viability, T/C: 41.4%
[35]
  viability, T/C: 30.2%
[36]
  viability, T/C: 0.58%

## C=C(F)C(=O)N1CCN(c2nc(OCC3CCCN3C)nc3c2CCN(c2cccc4cccc(Cl)c24)C3)CC1CC#N (centres undefined) + CN1CCN(c2cc(C(=O)Nc3cc4cc(-c5cnn(C)c5)ccc4cn3)ccn2)CC1
Second compound 0.0316 µM
  IC50: 2590 nM
Second compound 0.1 µM
  IC50: 1770 nM
Second compound 0.316 µM
  IC50: < 31.6 nM
Second compound 1 µM
  IC50: < 31.6 nM
Second compound 3.16 µM
  IC50: < 31.6 nM
Second compound 10 µM
  IC50: < 31.6 nM
[1]
  viability, T/C: 101%
[2]
  viability, T/C: 107%
[3]
  viability, T/C: 108%
[4]
  viability, T/C: 81.1%
[5]
  viability, T/C: 44%
[6]
  viability, T/C: 0.43%
[7]
  viability, T/C: 94.3%
[8]
  viability, T/C: 94.6%
[9]
  viability, T/C: 91.7%
[10]
  viability, T/C: 79.5%
[11]
  viability, T/C: 20%
[12]
  viability, T/C: 0.6%
[13]
  viability, T/C: 22.1%
[14]
  viability, T/C: 24.1%
[15]
  viability, T/C: 23.3%
[16]
  viability, T/C: 24.7%
[17]
  viability, T/C: 6.76%
[18]
  viability, T/C: 1.76%
[19]
  viability, T/C: 0.16%
[20]
  viability, T/C: 0.32%
[21]
  viability, T/C: 0.25%
[22]
  viability, T/C: 0.59%
[23]
  viability, T/C: 0.1%
[24]
  viability, T/C: 0.24%
[25]
  viability, T/C: 0.12%
[26]
  viability, T/C: 1.74%
[27]
  viability, T/C: 1.8%
[28]
  viability, T/C: 0.12%
[29]
  viability, T/C: 0.36%
[30]
  viability, T/C: 1.56%
[31]
  viability, T/C: 0.17%
[32]
  viability, T/C: 0.19%
[33]
  viability, T/C: 1.71%
[34]
  viability, T/C: 0.23%
[35]
  viability, T/C: 0.23%
[36]
  viability, T/C: 0.8%
